Assay results: US20110251158A1, “FULLERENE THERAPIES FOR INFLAMMATION AND INHIBITION OF BUILD-UP OF ARTERIAL PLAQUE” (Luna Innovations Incorporated, priority 2008, published 2011)

Key:
[1] = system: intracellular calcium stores release; assay: FcεRI-induced intracellular calcium (Fura-2) in MC; format: cell-based, human; settings: 10 μg/mL overnight; anti-FcεRI 1 μg/mL
Experimental: MC were pre-treated with or without fullerene derivatives as above, washed with Tyrodes buffer supplemented with BSA, and incubated with Fura-2 AM (2 μM) for 30 minutes at 37° C. Cells were washed, stimulated with anti-FcεRI, and calcium flux measured in real time on a Perkin Elmer LS55 Spectrofluorometer. For ROS production, cells were exposed to fullerene derivatives as above. After washing, cells were re-suspended in X-Vivo medium containing 5 μM dichlorodihydrofluorescein (DCF) at 37° C. for 30 minutes, washed, and activation-induced changes in mean fluorescence was measured with excitation at 502 nm and emission at 523 nm for 15 minutes (19). The data is presented as fluorescence intensity of the 523 nm emission over time. All experiments were performed in triplicate and degranulation was measured in parallel.
Cells were incubated with or without fullerene derivative (10 μg/mL) overnight. The next day cells were challenged with anti-FcεRI (3B4; 1 μg/mL) and calcium stores release was determined by the 340/380 nm ratio (FIGS. 11A and 11B) and ROS measured by DCF detection at 523 nm (FIGS. 11C and 11D). FIGS. 11A and 11C contain cells incubated with the TGA fullerene derivative, and FIGS. 11B and 11D contain cells incubated with the Inos fullerene derivative (10 μg/mL). […]

Lyn = Lyn gene (microarray) and protein (Western blotting) expression in MC; format: cell-based, human
Experimental: Mast cells (1×10^7 cell/condition; each condition performed in triplicate) were incubated with or without fullerene derivatives as above and incubated with or without anti-FcεRI antibodies for 10 minutes, supernatants were removed (to remove pre-formed mediators), […] Cells were centrifuged, the supernatant and the pellet immediately frozen and microarray performed using the Human Whole Genome OneArray™ gene expression profiling service (Phalanx Biotech Group). Separate samples, assayed in parallel were lysed and protein expression analyzed by Western blotting or flow cytometry (CD45) as described in Kepley, C. L., Pfeiffer, J., Wilson, B. W., Schwartz, L. B., and Oliver, J. M. J. Leukocyte Biol. 64, 474-483 (1998).
In order to examine the genes most affected by fullerene derivative preincubation the resulting values were sorted and filtered the following way. First, the mean (±SD) of the six values from each condition for each of the 30,970 genes was calculated. Second, only normalized value intensities of >100 were included so that follow up detection of protein levels would be more likely to be successful. […]

Ames test = settings: not shown
From the text: Taken together, the derivatives described herein are not cytotoxic to several cell lines tested and appear to have no acute in vivo cytotoxic effects.

[2] = system: Peripheral blood basophils (PBB); assay: Anti-IgE-induced IL-13 secretion from PBB (ELISA); format: cell-based, human; settings: for Mean % Inhibition of IL-13 Secretion: 15 ng/ml anti-IgE
Experimental: (§1) PBB were obtained from two sources: donors recruited under an IRB-approved protocol after informed consent or from leukopheresis packs obtained from the Johns Hopkins Hemapheresis Center. PBB were purified to ≧99% purity as described in Vonakis, B. M., Gibbons S Jr, Sora, R., Langdon, J. M., and MacDonald, S. M. J. Allergy Clin. Immunol. 108, 822-831 (2001), and Miura, K., Saini, S. S., Gauvreau, G., and MacGlashan, D. W., Jr. J. Immunol. 167, 2282-2291 (2001). Purified PBB were incubated overnight (20 hours) with a fullerene derivative (5 μg/ml) or vehicle control and a minimal (non-stimulatory) concentration of IL-3 (2 pg/ml) to prevent apoptosis. The next day, cells were washed and aliquoted for the histamine release assay by treatment with 0.1 mg/ml of goat polyclonal anti-IgE, buffer alone (spontaneous release) or perchloric acid (total histamine determination). Histamine was quantified in cell free supernatants using automated fluorimetry in duplicate. In a second set of experiments the two fullerene derivatives (at 5 μg/ml) were incubated with PBB for 20 hours, washed cells stimulated with 15 ng/ml anti-IgE for 18 hours in duplicate and supernatants collected for quantification of IL-13 by in-house ELISA. The optimal doses of anti-IgE are chosen for activation of PBB.

[3] = system: Peripheral blood basophils (PBB); assay: Anti-IgE-induced histamine release (degranulation) from PBB; format: cell-based, human
Experimental: as §1

[4] = PBB, maximum inhibition set to 100%

C70-tetraglycolic acid [TGA]
FcεRI-induced intracellular calcium stores release [1]: inhibited
Lyn gene expression levels reduced (Lyn; at 2 hours): 51%
Lyn inhibition at the protein level (Lyn; at 6 hours): 92%
mutagenic potential (Ames test): No mutagenic potential
FD + anti-IgE (mean ± SEM, ng/ml), IL-13 ([2]; 5 μg/ml FD, 20 hours, 15 ng/ml anti-IgE 18 hours): 79.3 ± 20.9 ng/mL
Mean % Inhibition of IL-13 Secretion ([2]; 5 μg/ml FD, listed as C70-TGA): 52.4%
Mean % Inhibition of IL-13 Secretion ([2]; 5 μg/ml FD, listed as C70-tetraglucolate): significant inhibition
IC50 (IL-13-cytokine production) [2, 4]: 10.6 µg/mL
maximal inhibition of anti-IgE stimulated IL-13 secretion ([2]; detected at 0.5 μg/ml, mean, n=2): 37.4%
Mean % Inhibition of Histamine Release ([3]; 5 μg/ml FD vs vehicle control, listed as C70-TGA): 15.8%
FD + anti-IgE (mean ± SEM), histamine release ([3]; 5 μg/ml FD, 20 hours, anti-IgE): 39.4 ± 2.3
maximal inhibition of anti-IgE-induced histamine release ([3]; 50 µg/mL dose, mean±SEM, n=2-3): 37.8±16.25%
IC50 (degranulation) [3, 4]: 9.9 µg/mL
